According to ChEMBL document CHEMBL3885881, “DrugMatrix”:

Species on record: Rattus norvegicus
Assay type: toxicity, organism-based, Sprague-Dawley
Settings: in vivo, po, route oral GAVAGE, vehicle 100 % SALINE; for ABSOLUTE EOSINOPHIL / ABSOLUTE LYMPHOCYTE / ABSOLUTE MONOCYTE / ABSOLUTE SEGMENTED NEUTROPHIL / BASOPHIL / EOSINOPHIL / ERYTHROCYTE COUNT / HEMATOCRIT / HEMOGLOBIN / LEUKOCYTE COUNT / LYMPHOCYTE / MEAN CORPUSCULAR HEMOGLOBIN / MEAN CORPUSCULAR HEMOGLOBIN CONCENTRATION / MONOCYTE / NEUTROPHIL / NUCLEATED RED BLOOD CELLS / PLATELET COUNT: tissue Blood; for ALANINE AMINOTRANSFERASE / ALBUMIN / ALKALINE PHOSPHATASE / ASPARTATE AMINOTRANSFERASE / BLOOD UREA NITROGEN / CARBON DIOXIDE / CHLORIDE / CHOLESTEROL / CREATINE PHOSPHOKINASE / CREATININE / GLUCOSE / LACTATE DEHYDROGENASE / LIPASE / PHOSPHORUS / POTASSIUM / SODIUM / TOTAL BILIRUBIN / TOTAL PROTEIN / URIC ACID: tissue Plasma
[1] = 0 mg/kg, 6 h, vehicle control, dose level Control, time 0.25 day
[2] = 0 mg/kg, 24 h, vehicle control, dose level Control, time 1 day
[3] = 700 mg/kg, 6 h, dose level Low, time 0.25 day

Description: DrugMatrix - Regimen: Single

Compound: CN(C)C=O [DIMETHYLFORMAMIDE]
- ABSOLUTE EOSINOPHIL [1]: 24 CELLS/uL
- ABSOLUTE LYMPHOCYTE [1]: 11958.17 CELLS/uL
- ABSOLUTE MONOCYTE [1]: 398.83 CELLS/uL
- ABSOLUTE SEGMENTED NEUTROPHIL [1]: 1252.33 CELLS/uL
- BASOPHIL [1]: 0%
- EOSINOPHIL [1]: 0.17%
- ERYTHROCYTE COUNT [1]: 5.37 x10E6/uL
- HEMATOCRIT [1]: 35.6%
- HEMOGLOBIN [1]: 13.05 G/DL
- LEUKOCYTE COUNT [1]: 13.63 x10E3/uL
- LYMPHOCYTE [1]: 87.67%
- MEAN CORPUSCULAR HEMOGLOBIN [1]: 24.28 pg
- MEAN CORPUSCULAR HEMOGLOBIN CONCENTRATION [1]: 36.67 G/DL
- MONOCYTE [1]: 2.83%
- NEUTROPHIL [1]: 9.33%
- NUCLEATED RED BLOOD CELLS [1]: 0 /100WBC
- PLATELET COUNT [1]: 947.83 x10E3/uL
- ALANINE AMINOTRANSFERASE [1]: 51 u/L
- ALBUMIN [1]: 4.02 G/DL
- ALKALINE PHOSPHATASE [1]: 312.33 u/L
- ASPARTATE AMINOTRANSFERASE [1]: 98.17 u/L
- BLOOD UREA NITROGEN [1]: 9.5 mg/dL
- CARBON DIOXIDE [1]: 18.83 mmol/L
- CHLORIDE [1]: 103.5 MEQ/L
- CHOLESTEROL [1]: 69.5 mg/dL
- CREATINE PHOSPHOKINASE [1]: 580.17 u/L
- CREATININE [1]: 0.53 mg/dL
- GLUCOSE [1]: 175.67 mg/dL
- LACTATE DEHYDROGENASE [1]: 295.5 u/L
- LIPASE [1]: 8.17 u/L
- PHOSPHORUS [1]: 14.12 mg/dL
- POTASSIUM [1]: 5.77 MEQ/L
- SODIUM [1]: 144.13 MEQ/L
- TOTAL BILIRUBIN [1]: 0.12 mg/dL
- TOTAL PROTEIN [1]: 4.87 G/DL
- URIC ACID [1]: 2.25 mg/dL
- ABSOLUTE EOSINOPHIL [2]: 0 CELLS/uL
- ABSOLUTE LYMPHOCYTE [2]: 12232.83 CELLS/uL
- ABSOLUTE SEGMENTED NEUTROPHIL [2]: 780.17 CELLS/uL
- BASOPHIL [2]: 0%
- EOSINOPHIL [2]: 0%
- ERYTHROCYTE COUNT [2]: 5.18 x10E6/uL
- HEMATOCRIT [2]: 33.48%
- HEMOGLOBIN [2]: 13.22 G/DL
- LEUKOCYTE COUNT [2]: 13.03 x10E3/uL
- LYMPHOCYTE [2]: 93.33%
- MEAN CORPUSCULAR HEMOGLOBIN [2]: 25.57 pg
- MEAN CORPUSCULAR HEMOGLOBIN CONCENTRATION [2]: 39.52 G/DL
- MONOCYTE [2]: 0.17%
- NEUTROPHIL [2]: 6.5%
- NUCLEATED RED BLOOD CELLS [2]: 0 /100WBC
- PLATELET COUNT [2]: 931.5 x10E3/uL
- ALANINE AMINOTRANSFERASE [2]: 60.83 u/L
- ALBUMIN [2]: 4.18 G/DL
- ALKALINE PHOSPHATASE [2]: 283.33 u/L
- ASPARTATE AMINOTRANSFERASE [2]: 80.5 u/L
- BLOOD UREA NITROGEN [2]: 11.83 mg/dL
- CARBON DIOXIDE [2]: 35.33 mmol/L
- CHLORIDE [2]: 98.5 MEQ/L
- CHOLESTEROL [2]: 80 mg/dL
- CREATINE PHOSPHOKINASE [2]: 181.83 u/L
- CREATININE [2]: 0.2 mg/dL
- GLUCOSE [2]: 142.67 mg/dL
- LACTATE DEHYDROGENASE [2]: 65.5 u/L
- LIPASE [2]: 9.83 u/L
- PHOSPHORUS [2]: 9.82 mg/dL
- POTASSIUM [2]: 5.69 MEQ/L
- SODIUM [2]: 143.35 MEQ/L
- TOTAL BILIRUBIN [2]: 0.15 mg/dL
- TOTAL PROTEIN [2]: 6.2 G/DL
- URIC ACID [2]: 0.42 mg/dL
- ABSOLUTE EOSINOPHIL [3]: 9.5 CELLS/uL
- ABSOLUTE LYMPHOCYTE [3]: 11164.33 CELLS/uL
- ABSOLUTE MONOCYTE [3]: 139.17 CELLS/uL
- ABSOLUTE SEGMENTED NEUTROPHIL [3]: 1270.33 CELLS/uL
- BASOPHIL [3]: 0%
- EOSINOPHIL [3]: 0.17%
- ERYTHROCYTE COUNT [3]: 5.55 x10E6/uL
- HEMATOCRIT [3]: 36.67%
- HEMOGLOBIN [3]: 12.92 G/DL
- LEUKOCYTE COUNT [3]: 12.58 x10E3/uL
- LYMPHOCYTE [3]: 88.83%
- MEAN CORPUSCULAR HEMOGLOBIN [3]: 23.45 pg
- MEAN CORPUSCULAR HEMOGLOBIN CONCENTRATION [3]: 35.43 G/DL
- MONOCYTE [3]: 1%
- NEUTROPHIL [3]: 10%
- NUCLEATED RED BLOOD CELLS [3]: 0 /100WBC
- PLATELET COUNT [3]: 1098.83 x10E3/uL
- ALANINE AMINOTRANSFERASE [3]: 66.17 u/L
- ALBUMIN [3]: 4.17 G/DL
- ALKALINE PHOSPHATASE [3]: 259.5 u/L
- ASPARTATE AMINOTRANSFERASE [3]: 125.5 u/L
- BLOOD UREA NITROGEN [3]: 9.33 mg/dL
- CARBON DIOXIDE [3]: 17.83 mmol/L
- CHLORIDE [3]: 103 MEQ/L
- CHOLESTEROL [3]: 67.67 mg/dL
- CREATINE PHOSPHOKINASE [3]: 882.33 u/L
- CREATININE [3]: 0.3 mg/dL
- GLUCOSE [3]: 174.5 mg/dL
- LACTATE DEHYDROGENASE [3]: 297.17 u/L
- LIPASE [3]: 9.83 u/L
- PHOSPHORUS [3]: 15.98 mg/dL
- POTASSIUM [3]: 6.92 MEQ/L
- SODIUM [3]: 144.05 MEQ/L
- TOTAL BILIRUBIN [3]: 0.13 mg/dL
- TOTAL PROTEIN [3]: 5.7 G/DL
- URIC ACID [3]: 3.3 mg/dL
